Assay results published in US10994016B2, “Graphene oxide mediated cellular delivery of gadolinium-labeled molecules” (Northwestern University, priority 2015, dated 2021).
Where two headings read alike, the source gives them in different places.

Experiments:
HeLa cells [1] = assay: Cell MR imaging of Magnevist-labeled cells in agarose phantoms (6-well labeling, Gd content by ICP-MS, 7 T); assay type: cell-based; settings: for Labeling achieved in the imaging study: after centrifugation; for Sensitivity for labeled cells on T1-weighted MRI: 7T
Method: HeLa cells were labeled by Magnevist with and without 150 nm GO co-incubation in 6-well plates. 2 plates seeded at 300,000 cells per well were needed to produce a sufficient number of cells for imaging. For the condition of GO co-incubation, 4500 μL of Magnevist-GO mixture was prepared at a concentration of 93.3 mM Magnevist and 27 μg/mL GO. The mixture was allowed to adsorb for at least 15 minutes. 375 μL of the Magnevist-GO mixture was added to 625 μL of media in each well to reach a final concentration of 35 mM Magnevist and 10 μg/mL GO. The cells were incubated with the mixture for […]. To harvest, cells were rinsed in-plate three times with 3000 μL PBS and trypsinized using 400 μL 0.25% TrypLE. After 5 minutes of incubation at 37° C., 600 μL of media was added to each well and mixed by a pipette to ensure that all cells were lifted into suspension. After combining all the wells into a 12 mL cell suspension, 3 aliquots of 25 μL each were obtained for cell counting by Guava. 175 μL of Guava ViaCount reagent was used for dilution. Additionally, 200 μL of the cell suspension was transferred to a 1.5-mL microcentrifuge tube, centrifuged at 1000 RPM for 5 min (Thermo Scientific, Model Legend Micro 21R), and re-suspended in 200 μL media to wash the cells. From the washed cell suspension, two aliquots of 25 μL each were used for cell counting by Guava and two aliquots of 25 μL each were used for Gd content analysis by ICP-MS. For the condition without GO co-incubation, the same procedures were followed except GO was replaced by Milli-Q water.
To create the cellular phantoms in agarose, a 1% media-agarose was prepared by mixing media and 2% low melting-point agarose (Life Technologies, Carlsbad, Calif.) in equal parts. At 7 T, the media-agrose has a T1 of 2952±152 ms and a T2 of 96±1 ms. In a 4 mL 15×45 mm glass vial, 2 mL of media-agarose was gelled at room temperature around a 5 mm OD NMR tube that was later removed to create a cylindrical bore. To fill the bore, the suspension of labeled cells was centrifuged at 1000 RPM for 5 minutes. After removing the supernatant, the cell pellet was re-suspended in media-agarose and further diluted to densities of 10,000, 5,000, 2,000, 500, and 100 cells/μL. 300 μL of each cell suspension was used to fill the bores in the 4 mL vials. After filling, the vials were cooled to 4° C. for 20 minutes to solidify the suspension. Approximately 3 mL of media was added on top of the media-agarose to completely fill the vial.
T1- and T2-weighted imaging were performed on a Bruker Pharmscan 7.05 T imaging spectrometer fitted with shielded gradient coils and a RF RES 300 1H 089/023 quadrature transceiver volume coil at 25° C. (Bruker BioSpin, Billerica, Mass.). Imaging was performed using a Rapid Acquisition with Refocused Echoes (RARE) pulse sequence. For T1-weighted imaging, the imaging parameters were TR=200 ms, TE=11.7 ms, NEX=1, FOV=21×21 mm^2, slice thickness=2 mm, and matrix size=256×256. For T2-weighted HDR, the imaging parameters were TR=5000 ms, TE=100 ms, NEX=1, FOV=15×15 mm^2, slice thickness=2 mm, and matrix size=256×256. The signal intensities of the acquired images were normalized such that the blank media-agarose has the same intensity across all images. Image processing was performed using ImageJ (NIH, Bethesda, Md.). T1 and T2-weighted images were processed separately.

HeLa cells [2] = assay: 24 hour cytotoxicity assay (Guava ViaCount); assay type: cell-based; settings: for IC50: read-out: IC50 (viability)
Method: FIG. 11. 24 hour cytotoxicity assay using HeLa cells at increasing Magnevist and GO concentrations. […] The maximum GO dose required for cellular delivery enhancement is 20 μg/mL, or an order of magnitude below the highest test dose. The 150 nm GO was used for the study.
FIGS. 12A-B. Cytotoxicity of Magnevist. A) Viability of HeLa cells at increasing Magnevist concentration as measured by the Guava ViaCount Assay. Analysis includes floating cells at the end of the 24-hr incubation period. The fitted IC50 was 80 mM. […] Fitting was performed using GraphPad Prism software. All incubations were performed for 24 hours. Error bars show SD.
Cell counting was conducted using a Guava EasyCyte Mini Personal Cell Analyzer (EMD Millipore, Billerica, Mass.). After cell harvesting, an aliquot (50 μL) of the cell suspensions was mixed with Guava ViaCount reagent (150 μL) and allowed to stain at room temperature for at least 5 minutes. The dilution factor of 4 was determined based upon optimum machine performance (20-150 cells/μL). After vortexing for 10 sec, stained cells were counted using a Guava EasyCyte Mini Personal Cell Analyzer (PCA) using the ViaCount software module. For each sample, 1000 events were acquired. Gating of live/dead and cell/debris classifications were performed manually by the operator.

Substance: Diethylenetriaminepentaacetic acid gadolinium(III) dihydrogen salt hydrate [Molecule 11]
- Improvement of labeling with GO over Magnevist alone (HeLa cells [1]; 35 mM Magnevist, 10 μg/mL GO): 57%
- Cellular Gd(III) payload relative to Gd(III)-DNA gold nanoparticles, Gd(III)-labeled polymer-liposomes, gadonanotubes and gadofullerenols (HeLa cells [1]; GO co-incubation): 30-50 fold
- Increase of MR sensitivity for labeled cells compared to Magnevist alone (HeLa cells [1]; GO co-incubation): ~10 fold
- Labeling achieved in the imaging study (HeLa cells [1]; Magnevist alone (35 mM), without GO): 30 fmol Gd/cell
- Enhancement by GO (HeLa cells [1]; imaging study, before centrifugation): 2.2 ×
- Labeling achieved in the imaging study (HeLa cells [1]; with GO co-incubation (10 μg/mL), 35 mM Magnevist): 47 fmol Gd/cell
- Sensitivity for labeled cells on T1-weighted MRI (HeLa cells [1]; with GO co-incubation (150 nm GO)): 500 cells/μL
- Loading in the imaging study (HeLa cells [1]; with GO, before centrifugation): 153 fmol/cell
- Sensitivity for labeled cells on T1-weighted MRI (HeLa cells [1]; without GO): 5000 cells/μL
- Loading in the imaging study (HeLa cells [1]; without GO, before centrifugation): 69 fmol/cell
- IC50 (HeLa cells [2]; 24 h, after in-plate washing by PBS, floating cells not included): 99 mM
- IC50 (HeLa cells [2]; 24 h, analysis includes floating cells): 80 mM
- Cytotoxicity (HeLa cells [2]; 24 h, up to 35 mM Magnevist and 250 μg/mL GO (150 nm GO)): No significant cytotoxicity
- Cytotoxicity (HeLa cells [2]; Magnevist increased to 70 mM, with GO): synergistic cytotoxicity
